Data reported in patent US9458104B2 (priority 2012, dated 2016).

Legend:
[1] = biological target: T1, RORγ ligand binding domain (LBD) (Homo sapiens, UniProt P51449); experiment: TR-FRET Activity Assay (ligand sensing assay, RORγ-LBD / coactivator peptide interaction); type: biochemical
T1 construct: made in house; host or cells: E. coli BL-21 (BL3), vector pDEST15
T1 sequence (P51449 269-508 limits assumed): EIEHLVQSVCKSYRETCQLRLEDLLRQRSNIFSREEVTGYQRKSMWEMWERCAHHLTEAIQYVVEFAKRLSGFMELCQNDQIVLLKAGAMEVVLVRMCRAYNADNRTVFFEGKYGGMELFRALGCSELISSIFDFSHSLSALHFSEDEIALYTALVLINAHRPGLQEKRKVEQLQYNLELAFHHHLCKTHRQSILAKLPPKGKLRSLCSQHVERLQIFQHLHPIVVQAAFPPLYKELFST
Method in brief: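 GST-RORγ LBD expressed in bacteria, 20–60 ng/well, with biotinylated coactivator peptide 200–600 nM, streptavidin-APC and Eu-anti-GST. Buffer: 20 mM Tris-HCl pH 6.8, 60 mM KCl, 1 mM DTT, 5 mM MgCl2, BSA; 1% DMSO. LANCE TR-FRET 665/615 nm ratio; IC50 from four-parameter logistic fit.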

RORγ = biological target: T2, RORγ (UniProt P51449); type: cell-based; conditions: 293T cells, 16 h; for pIC50 (FF): firefly (FF) luciferase; for pIC50 (REN): renilla normalised (RENnorm) luciferase
T2 construct: hRORg-LBD|aa259-518|NP_005051.2; hRORgt|aa1-497|NP_001001523 (RORg, t isoform, 497aa); mRORg-LBD|aa264-516|NP_035411
T2 sequence (P51449 1-518): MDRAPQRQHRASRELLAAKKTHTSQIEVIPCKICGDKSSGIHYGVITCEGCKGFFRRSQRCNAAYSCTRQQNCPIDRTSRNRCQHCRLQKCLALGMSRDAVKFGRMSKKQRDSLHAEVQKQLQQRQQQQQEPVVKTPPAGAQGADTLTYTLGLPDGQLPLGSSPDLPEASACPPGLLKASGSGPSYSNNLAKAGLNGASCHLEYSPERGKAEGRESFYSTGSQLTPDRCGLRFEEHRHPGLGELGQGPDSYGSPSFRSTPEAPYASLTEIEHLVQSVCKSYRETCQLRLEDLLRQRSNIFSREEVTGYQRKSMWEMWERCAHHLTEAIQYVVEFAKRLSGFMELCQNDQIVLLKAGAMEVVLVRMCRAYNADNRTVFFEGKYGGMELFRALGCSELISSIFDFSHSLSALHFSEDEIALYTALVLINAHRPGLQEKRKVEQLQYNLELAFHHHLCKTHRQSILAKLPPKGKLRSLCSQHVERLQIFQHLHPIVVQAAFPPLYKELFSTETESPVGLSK

SMILES	IC50 [1]	pIC50 (FF) (RORγ)	pIC50 (REN) (RORγ)
CC(C)(C)c1cc(-n2nc(C(=O)NS(C)(=O)=O)cc2CC2CCCCC2)cc(C(C)(C)C)c1 [Example 312/1]	6.31 µM	< 4.7	< 4.7
CC(C)(C)c1cc(-n2nc(C(N)=O)c(Cl)c2CC2CCCCC2)cc(C(C)(C)C)c1 [Example 313, 4-Chloro-5-(cyclohexylmethyl)-1-(3,5-di-tert-butylphenyl)-1H-pyrazole-3-carboxamide]	0.1 µM	6.3	6.4
CC(C)(C)c1cc(-n2nc(C(N)=O)c(Cl)c2CC2CCCCC2)cc(C(C)(C)C)n1 [Example 315, 4-Chloro-5-(cyclohexylmethyl)-1-(2,6-di-tert-butylpyridin-4-yl)-1H-pyrazole-3-carboxamide]	0.126 µM	6.7	6.7
COC(C)(C)c1cc(-n2nc(C(N)=O)c(Cl)c2CC2CCCCC2)cc(C(C)(C)C)c1 [Example 315/1]	1 µM	6.0/6.0/6.0	6.0/6.0/6.0
Cn1c(C(=O)O)cc(-c2ccc(S(=O)(=O)NC(C)(C)C)c3ccccc23)c1CC1CCCCC1 [Example 317, 4-(4-(N-(tert-Butyl)sulfamoyl)naphthalen-1-yl)-5-(cyclohexylmethyl)-1-methyl-1H-pyrrole-2-carboxylic acid]	1.26 µM	6.9	6.9
CC(C)(C)NS(=O)(=O)c1ccc(-n2nc(C(=O)N[C@H]3C[C@H](C(=O)O)C3)nc2CC2CCCCC2)cc1C(C)(C)C [Example 318, trans-3-(1-(3-(tert-Butyl)-4-(N-(tert-butyl)sulfamoyl)phenyl)-5-(cyclohexylmethyl)-1H-1,2,4-triazole-3-carboxamido)cyclobutanecarboxylic acid]	2 µM	< 4.7	< 4.7
CC(C)(C)NS(=O)(=O)c1ccc(-n2nc(C(=O)NC3CCOCC3)nc2CC2CCCCC2)cc1C(C)(C)C [Example 318/1]	2.51 µM	6.2	6.2
Cc1c(C(=O)NC2CCOCC2)cc(-c2ccc(S(=O)(=O)NC(C)(C)C)c(C(F)(F)F)c2)n1CC(C(F)(F)F)C(F)(F)F [Example 319, 5-(4-(N-(tert-Butyl)sulfamoyl)-3-(trifluoromethyl)phenyl)-2-methyl-N-(tetrahydro-2H-pyran-4-yl)-1-(3,3,3-trifluoro-2-(trifluoromethyl)propyl)-1H-pyrrole-3-carboxamide]	5.01 µM	6.0	5.8
CC(=O)c1cc(-c2cc(C(C)(C)C)cc(C(C)(C)C)c2)n(CC2CCCCC2)c1C [Example 321, 1-(1-(Cyclohexylmethyl)-5-(3,5-di-tert-butylphenyl)-2-methyl-1H-pyrrol-3-yl)ethanone]	0.794 µM	5.8	6.0
C=CCCC(=O)c1cc(-c2cc(C(C)(C)C)cc(C(C)(C)C)c2)n(CC2CCCCC2)c1C [Example 322, 1-(1-(Cyclohexylmethyl)-5-(3,5-di-tert-butylphenyl)-2-methyl-1H-pyrrol-3-yl)pent-4-en-1-one]	1.58 µM	< 4.7	< 4.7
Cc1c(C(=O)CC2CC2)cc(-c2cc(C(C)(C)C)cc(C(C)(C)C)c2)n1CC1CCCCC1 [Example 324, 1-(1-(Cyclohexylmethyl)-5-(3,5-di-tert-butylphenyl)-2-methyl-1H-pyrrol-3-yl)-2-cyclopropylethanone]	0.631 µM	< 4.7	< 4.7
Cc1c(S(=O)(=O)CC2CC2)cc(-c2cc(C(C)(C)C)cc(C(C)(C)C)c2)n1CC1CCCCC1 [Example 325, 1-(Cyclohexylmethyl)-3-((cyclopropylmethyl)sulfonyl)-5-(3,5-di-tert-butylphenyl)-2-methyl-1H-pyrrole]	0.398 µM	6.1	6.1
CCS(=O)(=O)c1cc(-c2cc(C(C)(C)C)cc(C(C)(C)C)c2)n(CC2CCCCC2)c1C [Example 325/1]	0.251 µM	6.0	6.3
